One experiment concerns the target T1, FGFR3 (Homo sapiens, UniProt P22607).
T1 construct: purchased Upstate
As to the kind of experiment: FGFR3 in vitro kinase inhibitory activity assay. Conditions: for IC50: read-out: FGFR3 IC50(μM) or % I. The class given is biochemical. The protocol: (§1) FGFR3, VEGFR2 and PDGFR in vitro Kinase Inhibitory Activity Assays
(§2) Enzymes (from Upstate), prepared at 2× final concentration, were incubated with test compounds, biotinylated Flt3 substrate (biotin-VASSDNEYFYVDF) (Cell Signalling Technology Inc.) and ATP in the appropriate assay buffer (Table 1). The reaction was allowed to proceed for 3 hours (FGFR3), 1 hour (VEGFR2, PDGFR-beta) at room temperature on a plate shaker at 700 rpm before being stopped with 35 mM EDTA, pH 8 (FGFR3, VEGFR2) or 55 mM EDTA, pH 8 (PDGFR-beta). 5× detection mix/50 mM HEPES pH 7.5, 0.1% BSA, 11.34 nM Eu-anti-pY (PY20) (PerkinElmer) 74 nM SA-XL665 (Cisbio) for FGFR3, 50 mM HEPES, pH 7.5, 0.1% BSA, 11.34 nM Eu-anti-pY (PY20), 187.5 nM SA-XL665 for VEGFR2 and 50 mM HEPES, pH 7.5, 0.1% BSA, 11.34 nM Eu-anti-pY (PT66) (PerkinElmer), 375 nM SA-XL665 (Cisbio) for PDGFR-beta) was then added to each well and the plate sealed and incubated at room temperature for one hour on a plate shaker at 700 rpm. The plate was then read on a Packard Fusion plate reader or a BMG Pherastar both in TRF mode.

A further experiment concerns the target T2, VEGFR2 (Homo sapiens, UniProt P35968).
T2 construct: purchased Upstate
As to the kind of experiment: VEGFR2 in vitro kinase inhibitory activity assay. The class given is biochemical. To be noted: read-out: VEGFR2 IC50(μM) or % I. The protocol:
as §1, §2
Kinase Assay buffers were:
B: 50 mM HEPES pH 7.5, 6 mM MnCl2, 1 mM DTT, 0.01% TritonX-100, 0.1 mM Sodium orthovanadate

Experiment [1] has as its system parental wild-type Ba/F3 cells. As to the kind of experiment: Ba/F3 (WT) cell proliferation assay (Alamar Blue). The class given is cell-based, murine. To be noted: read-out: BaF3 WT prolif; for IC50: BaF3, 72 hours, with mouse IL-3. As for the experimental part:
(§3) Ba/F3-TEL-FGFR3 & Ba/F3 (WT) Cell Proliferation Assays
(§4) Stably transfected Ba/F3-TEL-FGFR3 cells were plated out into black 96-well tissue culture plates with clear bottoms in RPMI medium containing 10% FBS and 0.25 mg/ml G418 at a density of 5×10^3 cells/well (200 μl per well). The parental wild-type Ba/F3 cells (DSMZ no.: ACC 300) were plated out into black 96-well tissue culture plates with clear bottoms in RPMI medium containing 10% FBS and 2 ng/ml mouse IL-3 (R&D Systems) at a density of 2.5×10^3 cells/well (200 μl per well). Plates were placed in an incubator overnight before adding the compounds the following day. Dilutions of compounds were made in DMSO starting at 10 mM and were diluted into the wells to give a final DMSO concentration of 0.1% in assay. Compounds were left on the cells for 72 hours before the plates were removed from the incubator and 20 μl of Alamar Blue™ (Biosource) was added to each well. Plates were placed in the incubator for 4-6 hours before reading plates at 535 nm (excitation)/590 nm (emission) on a Fusion plate reader (Packard). Where inhibition is high an IC50 can be determined.
On the technique in general: Resazurin is reduced to fluorescent resorufin, in cell work by metabolically active cells.

A further experiment concerns the target T3, Ba/F3-TEL-FGFR3 cells (Homo sapiens, UniProt P22607).
T3 construct: fused on or other part: TEL (ETV6) N-terminal oligomerising part fused to the FGFR3 kinase part; P41212 (Transcription factor ETV6)
As to the kind of experiment: Ba/F3-TEL-FGFR3 cell proliferation assay (Alamar Blue). The class given is cell-based, murine. To be noted: for GI50: 72 hours, read-out: BaF3-TEL-FGFR3 prolif. The protocol: as §3, §4

The test system of experiment [2] is human prostate cancer PC3 cells. As to the kind of experiment: EB1 cellular assay (Eb1 Comet assay, microtubule disruption). The class given is cell-based. Conditions: PC-3, lowest active concentration: Eb1 foci absent in at least 50% of treated PC3 cells, 1 hour, read-out: Eb1 LAC. The protocol:
The Eb1 Comet assay relies on the detection of the Eb1 protein at the plus end of polymerizing microtubules (Mimori-Kiyosue, 2000) using indirect immunofluorescence. Disruption of microtubule dynamics through de-polymerization or stabilization results in a de-localization of Eb1 from the growing microtubule ends and this is visualized by the disappearance of Eb1 containing cytoplasmic foci.
Briefly, human prostate cancer PC3 cells obtained from the American Type Culture Collection were grown in 96-well plates (Greiner, cat. no. 655090) in HAM's F12 medium as recommended by the provider (ATCC). The cells were treated for 1 hour at 37° C. with compounds dissolved in DMSO (0.6% final DMSO concentration). The culture medium was then removed by aspiration and the cells were fixed by adding cold methanol (−20° C.). After a 15 minutes incubation at −20° C., the cells were washed twice with DPBS (Gibco) containing 0.5% Triton X-100. Mouse Eb1 antibody (BD Transduction Laboratories, cat. no. 610534) was added to the cells (1/250 dilution in DPBS containing 1% BSA) and incubated overnight at room temperature. The antibody was subsequently removed and the cells washed twice with DPBS, 0.5% Triton X-100. Secondary goat anti-mouse antibody conjugated to Alexa 488 fluorescent dye (Molecular Probes) was added at a 1/500 dilution in DPBS, 1% BSA and incubated for 1 hour at 37° C. The cells were washed twice with DPBS, 0.5% Triton X-100 and then DPBS containing 0.5% Triton X-100 and 1/5000 Hoechst 33342 (Molecular Probes) was added. Microscopy based Eb1 foci visualization was carried out using an IN Cell Analyser 1000 (Amersham Biosciences) using a 20× objective. Compound dependent microtubule disruption was visually determined by the disappearance in Eb1 foci. The lowest active concentration (LAC) was determined as the concentration where Eb1 foci were absent in at least 50% of the treated cells. Herein the effects of test compounds are expressed as pLAC (the negative log value of the LAC-value)

This is an account of results in patent US8722687B2, “Imidazo [1,2-A]pyridine derivatives as FGFR kinase inhibitors for use in therapy” (Astex Therapeutics Ltd, priority 2009, dated 2014).

Bounds are passed on as bounds.

T1 sequence (P22607 23-806): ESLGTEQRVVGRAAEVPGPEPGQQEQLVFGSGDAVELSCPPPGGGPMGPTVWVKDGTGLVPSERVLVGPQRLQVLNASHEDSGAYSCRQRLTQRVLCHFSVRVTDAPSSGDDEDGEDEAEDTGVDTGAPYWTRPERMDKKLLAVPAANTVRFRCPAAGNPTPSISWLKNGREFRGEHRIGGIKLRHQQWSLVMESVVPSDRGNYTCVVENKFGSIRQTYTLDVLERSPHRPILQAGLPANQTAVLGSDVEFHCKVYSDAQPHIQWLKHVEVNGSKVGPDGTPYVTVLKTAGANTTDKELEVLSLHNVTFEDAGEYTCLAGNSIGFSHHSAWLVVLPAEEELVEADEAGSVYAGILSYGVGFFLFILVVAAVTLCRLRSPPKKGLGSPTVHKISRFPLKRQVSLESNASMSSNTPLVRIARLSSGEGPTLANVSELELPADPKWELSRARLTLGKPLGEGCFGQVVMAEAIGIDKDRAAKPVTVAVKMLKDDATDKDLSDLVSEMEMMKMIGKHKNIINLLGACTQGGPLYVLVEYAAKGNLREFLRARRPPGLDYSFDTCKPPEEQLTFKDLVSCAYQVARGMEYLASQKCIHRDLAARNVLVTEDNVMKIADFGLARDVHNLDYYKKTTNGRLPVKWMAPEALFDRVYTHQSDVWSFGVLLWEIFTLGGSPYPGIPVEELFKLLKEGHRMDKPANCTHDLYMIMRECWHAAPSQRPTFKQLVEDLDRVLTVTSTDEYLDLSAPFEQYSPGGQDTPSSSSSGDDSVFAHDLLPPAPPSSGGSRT
T3 sequence (P22607 whole entry, change not shown, the tested form may be a part): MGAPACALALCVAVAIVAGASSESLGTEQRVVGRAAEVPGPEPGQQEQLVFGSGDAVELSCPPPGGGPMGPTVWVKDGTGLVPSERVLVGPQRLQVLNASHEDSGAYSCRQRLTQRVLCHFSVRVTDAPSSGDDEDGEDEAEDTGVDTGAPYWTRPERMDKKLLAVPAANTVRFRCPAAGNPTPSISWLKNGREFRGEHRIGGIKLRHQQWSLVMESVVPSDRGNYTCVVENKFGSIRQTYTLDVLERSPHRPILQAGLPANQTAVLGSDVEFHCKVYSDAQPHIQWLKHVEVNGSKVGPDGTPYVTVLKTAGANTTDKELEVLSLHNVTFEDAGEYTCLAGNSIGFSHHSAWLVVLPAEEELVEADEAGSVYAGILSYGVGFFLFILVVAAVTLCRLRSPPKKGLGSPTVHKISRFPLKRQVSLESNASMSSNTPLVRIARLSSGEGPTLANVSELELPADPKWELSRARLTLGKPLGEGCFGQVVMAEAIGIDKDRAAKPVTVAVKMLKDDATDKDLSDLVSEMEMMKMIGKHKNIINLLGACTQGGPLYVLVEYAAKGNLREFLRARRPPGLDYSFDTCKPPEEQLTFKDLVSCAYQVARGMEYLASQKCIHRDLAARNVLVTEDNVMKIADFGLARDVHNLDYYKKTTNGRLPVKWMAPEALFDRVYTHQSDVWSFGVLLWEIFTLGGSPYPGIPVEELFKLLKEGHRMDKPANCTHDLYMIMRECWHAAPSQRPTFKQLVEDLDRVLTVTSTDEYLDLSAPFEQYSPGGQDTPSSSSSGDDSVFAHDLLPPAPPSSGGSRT
T2 sequence (P35968 20-1356): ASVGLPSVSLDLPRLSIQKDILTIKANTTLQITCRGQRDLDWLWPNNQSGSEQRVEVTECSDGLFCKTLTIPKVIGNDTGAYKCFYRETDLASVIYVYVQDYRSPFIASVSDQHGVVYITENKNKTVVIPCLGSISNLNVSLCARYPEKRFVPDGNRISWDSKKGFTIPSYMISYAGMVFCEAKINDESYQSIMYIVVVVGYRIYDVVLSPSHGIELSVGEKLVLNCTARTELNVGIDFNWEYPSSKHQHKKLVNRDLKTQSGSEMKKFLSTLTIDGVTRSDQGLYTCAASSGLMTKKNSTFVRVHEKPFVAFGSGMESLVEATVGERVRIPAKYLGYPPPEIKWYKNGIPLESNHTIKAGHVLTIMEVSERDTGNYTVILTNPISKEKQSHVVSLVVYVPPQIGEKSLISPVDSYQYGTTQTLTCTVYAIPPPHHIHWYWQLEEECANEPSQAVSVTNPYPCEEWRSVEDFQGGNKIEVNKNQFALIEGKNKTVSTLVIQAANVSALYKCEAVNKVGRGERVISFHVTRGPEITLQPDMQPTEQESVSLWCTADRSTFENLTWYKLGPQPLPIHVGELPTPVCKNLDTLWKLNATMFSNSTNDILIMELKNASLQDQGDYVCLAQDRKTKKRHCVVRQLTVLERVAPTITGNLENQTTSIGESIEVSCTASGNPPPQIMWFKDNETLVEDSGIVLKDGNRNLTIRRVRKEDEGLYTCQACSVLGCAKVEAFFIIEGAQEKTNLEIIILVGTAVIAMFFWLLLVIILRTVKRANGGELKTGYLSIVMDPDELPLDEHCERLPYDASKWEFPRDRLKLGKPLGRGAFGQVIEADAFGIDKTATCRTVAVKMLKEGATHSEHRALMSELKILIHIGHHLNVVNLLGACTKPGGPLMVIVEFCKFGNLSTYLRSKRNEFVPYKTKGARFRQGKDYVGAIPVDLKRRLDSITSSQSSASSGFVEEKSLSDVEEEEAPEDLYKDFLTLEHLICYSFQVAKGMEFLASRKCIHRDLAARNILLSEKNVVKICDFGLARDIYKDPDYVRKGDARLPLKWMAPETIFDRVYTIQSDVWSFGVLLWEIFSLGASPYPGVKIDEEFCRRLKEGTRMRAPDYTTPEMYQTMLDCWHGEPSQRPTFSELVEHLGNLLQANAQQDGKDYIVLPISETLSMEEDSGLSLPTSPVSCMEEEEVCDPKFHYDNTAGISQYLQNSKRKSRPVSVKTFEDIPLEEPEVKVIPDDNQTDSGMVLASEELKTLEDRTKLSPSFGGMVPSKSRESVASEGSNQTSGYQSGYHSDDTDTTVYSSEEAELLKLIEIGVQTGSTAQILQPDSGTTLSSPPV

With `CC(C)Oc1cc(NC(=O)NCC(F)(F)F)cc(-c2cnc3cc(-c4ncc(F)c(N)n4)ccn23)c1` [Compound F-1, 1-{3-[7-(4-Amino-5-fluoro-pyrimidin-2-yl)-imidazo[1,2-a]pyridin-3-yl]-5-isopropoxy-phenyl}-3-(2,2,2-trifluoro-ethyl)-urea], the IC50 stood at 0.0072 µM on FGFR3 and 1.35 µM on VEGFR2. In addition, the inhibition at 10 µM in experiment [1] (Mus musculus, BaF3, 72 h) turned out to be 42%. At Ba/F3-TEL-FGFR3 cells, the GI50 is 120 nM. The minimal effective concentration in experiment [2] is > 10 µM.
The matching figures for `CC(C)Oc1cc(NC(=O)NCC(F)(F)F)cc(-c2cnc3cc(-c4ncccn4)ccn23)c1` [Compound F-2, 1-[3-Isopropoxy-5-(7-pyrimidin-2-yl-imidazo[1,2-a]pyridin-3-yl)-phenyl]-3-(2,2,2-trifluoro-ethyl)-urea]: 0.0144 µM, 1.14 µM, 33%, 170 nM and > 10 µM.
Consider `Cc1nc(-c2ccn3c(-c4cc(NC(=O)NCC(F)(F)F)cc(OC(C)C)c4)cnc3c2)ccc1F` [Compound F-3, 1-{3-[7-(5-Fluoro-6-methyl-pyridin-2-yl)-imidazo[1,2-a]pyridin-3-yl]-5-isopropoxy-phenyl}-3-(2,2,2-trifluoro-ethyl)-urea], for which the values for the IC50 (at FGFR3; on VEGFR2; in experiment [1]) were 0.0087 µM, 0.48 µM and ~8000 nM, respectively. Moreover, at Ba/F3-TEL-FGFR3 cells, the GI50 was 330 nM. In experiment [2], the minimal effective concentration was > 10 µM.
On to `Cc1nc(N)cc(-c2ccn3c(-c4cc(NC(=O)NCC(F)(F)F)cc(OC(C)C)c4)cnc3c2)n1` [Compound F-4, 1-{3-[7-(6-Amino-2-methyl-pyrimidin-4-yl)-imidazo[1,2-a]pyridin-3-yl]-5-isopropoxy-phenyl}-3-(2,2,2-trifluoro-ethyl)-urea], for which the “FGFR3 IC50(μM) or % I” value on FGFR3 (% I at 0.003 (unit not given)) came to 45.0% at 0.003. Moreover, at VEGFR2, the IC50 turned out to be 0.1 µM. The inhibition at 10 µM in experiment [1] (Mus musculus, BaF3, 72 h) came out at 5%. Further, the “BaF3-TEL-FGFR3 prolif (μM)” value at Ba/F3-TEL-FGFR3 cells (% at 0.100 μM) is given as 50.0% at 0.100 μM. Also, the minimal effective concentration in experiment [2] was 1 µM.
In the case of `Cc1nnc(-c2ccn3c(-c4cc(NC(=O)NCC(F)(F)F)cc(OC(C)C)c4)cnc3c2)o1` [Compound F-5, 1-{3-Isopropoxy-5-[7-(5-methyl-[1,3,4]oxadiazol-2-yl)-imidazo[1,2-a]pyridin-3-yl]-phenyl}-3-(2,2,2-trifluoro-ethyl)-urea], the results for the IC50 at FGFR3 and on VEGFR2 were 0.0154 µM and 0.635 µM, respectively. Moreover, the inhibition at 10 µM in experiment [1] (Mus musculus, BaF3, 72 h) was determined as 59%. For the same compound, the GI50 at Ba/F3-TEL-FGFR3 cells is 220 nM. The minimal effective concentration in experiment [2] was > 10 µM.
On to `CC(C)Oc1cc(NC(=O)NCC(F)(F)F)cc(-c2cnc3cc(C(=O)C4CC4)ccn23)c1` [Compound F-6, 1-[3-(7-Cyclopropanecarbonyl-imidazo[1,2-a]pyridin-3-yl)-5-isopropoxy-phenyl]-3-(2,2,2-trifluoro-ethyl)-urea], for which the values for the IC50 (on FGFR3; at VEGFR2; in experiment [1]) were 0.0012 µM, 0.074 µM and 5600 nM, respectively. Also, the GI50 on Ba/F3-TEL-FGFR3 cells was determined as 31 nM. The minimal effective concentration in experiment [2] turned out to be 3 µM.
Turning to `COCc1cc(NC(=O)NCC(F)(F)F)cc(-c2cnc3cc(-c4nnc(C)o4)ccn23)c1` [Compound F-7, 1-{3-Methoxymethyl-5-[7-(5-methyl-[1,3,4]oxadiazol-2-yl)-imidazo[1,2-a]pyridin-3-yl]-phenyl}-3-(2,2,2-trifluoro-ethyl)-urea], the IC50 on FGFR3 amounted to 0.018 µM; at VEGFR2, 0.17 µM. Further, the inhibition at 10 µM in experiment [1] (Mus musculus, BaF3, 72 h) stood at 0%. The GI50 at Ba/F3-TEL-FGFR3 cells stood at 350 nM. The minimal effective concentration in experiment [2] came out at 10 µM.
With `CC(C)Oc1cc(NC(=O)NCC(F)(F)F)cc(-c2cnc3cc(-c4ccnc(C(F)(F)F)n4)ccn23)c1` [Compound F-8, 1-{3-Isopropoxy-5-[7-(2-trifluoromethyl-pyrimidin-4-yl)-imidazo[1,2-a]pyridin-3-yl]-phenyl}-3-(2,2,2-trifluoro-ethyl)-urea], the figures for the IC50 (on FGFR3; on VEGFR2; in experiment [1]) were 0.034 µM, 1.2 µM and ~2000 nM, respectively. The GI50 at Ba/F3-TEL-FGFR3 cells amounted to 170 nM. For the same compound, in experiment [2], the minimal effective concentration was 5 µM.
As for `COCc1cc(NC(=O)NCC(F)(F)F)cc(-c2cnc3cc(-c4ccnc(C(F)(F)F)n4)ccn23)c1` [Compound F-9, 1-{3-Methoxymethyl-5-[7-(2-trifluormethyl-pyrimidin-4-yl)-imidazo[1,2-a]pyridin-3-yl]-phenyl}-3-(2,2,2-trifluoro-ethyl)-urea], the IC50 was 0.0093 µM on FGFR3 and 0.057 µM on VEGFR2. In addition, in experiment [1] (Mus musculus, BaF3, 72 h, % at 3.00 μM), the inhibition at 3 µM amounted to 17%. Moreover, the GI50 at Ba/F3-TEL-FGFR3 cells stood at 240 nM. Further, the minimal effective concentration in experiment [2] was 2 µM.
In the case of `CCNC(=O)Nc1cc(OC(C)C)cc(-c2cnc3cc(-c4nncs4)ccn23)c1` [Compound F-10, 1-Ethyl-3-[3-isopropoxy-5-(7-[1,3,4]thiadiazol-2-yl-imidazo[1,2-a]pyridin-3-yl)-phenyl]-urea], the IC50 at FGFR3 is 0.013 µM; at VEGFR2 it was 0.36 µM. Moreover, the inhibition at 10 µM in experiment [1] (Mus musculus, BaF3, 72 h) amounted to 34%. Also, on Ba/F3-TEL-FGFR3 cells, the GI50 worked out at 230 nM. For the same compound, the minimal effective concentration in experiment [2] is 5 µM.
As for `Cc1nnc(-c2ccn3c(-c4cc(NC(=O)NCC(F)(F)F)cc(OC5CCC5)c4)cnc3c2)o1` [Compound F-11, 1-{3-Cyclobutoxy-5-[7-(5-methyl-[1,3,4]oxadiazol-2-yl)-imidazo[1,2-a]pyridin-3-yl]-phenyl}-3-(2,2,2-trifluoro-ethyl)-urea], on FGFR3, the IC50 was found to be 0.046 µM. In addition, on VEGFR2 (1 h, % I at 1 μM), the inhibition at 1 µM is 59%. The inhibition at 10 µM in experiment [1] (Mus musculus, BaF3, 72 h) came out at 14%. The GI50 at Ba/F3-TEL-FGFR3 cells was 520 nM. The minimal effective concentration in experiment [2] was > 10 µM.
Turning to `CC(C)Oc1cc(NC(=O)NCC(F)(F)F)cc(-c2cnc3cc(N4CCC(F)(F)CC4)ccn23)c1` [Compound F-13, 1-{3-[7-(4,4-Difluoro-piperidin-1-yl)-imidazo[1,2-a]pyridin-3-yl]-5-isopropoxy-phenyl}-3-(2,2,2-trifluoro-ethyl)-urea], the IC50 amounted to 0.061 µM on FGFR3 and 3200 nM in experiment [1]. The inhibition at 3 µM at VEGFR2 (1 h, % I at 3 μM) worked out at 55%. Moreover, the GI50 at Ba/F3-TEL-FGFR3 cells came to 820 nM. The minimal effective concentration in experiment [2] was found to be 5 µM.
